This is an account of results in patent US20090304692A1, “TRIAZINE COMPOUNDS AS PI3 KINASE AND MTOR INHIBITORS” (Wyeth, priority 2008, published 2009).

In one test the target is PI3K-α (Homo sapiens, UniProt P42336). As to the kind of experiment: PI3K-alpha fluorescence polarization assay. The settings on record: read-out: IC50 PI3Kα.
A further test deals with PI3K-γ (Homo sapiens, UniProt P48736). As to the kind of experiment: PI3K-gamma fluorescence polarization assay. The settings on record: read-out: IC50 PI3Kγ. In general terms: In fluorescence polarisation assays a small probe gives low polarisation when free and higher when bound to something large.
Sequence of PI3K-γ (P48736 whole entry, species assumed): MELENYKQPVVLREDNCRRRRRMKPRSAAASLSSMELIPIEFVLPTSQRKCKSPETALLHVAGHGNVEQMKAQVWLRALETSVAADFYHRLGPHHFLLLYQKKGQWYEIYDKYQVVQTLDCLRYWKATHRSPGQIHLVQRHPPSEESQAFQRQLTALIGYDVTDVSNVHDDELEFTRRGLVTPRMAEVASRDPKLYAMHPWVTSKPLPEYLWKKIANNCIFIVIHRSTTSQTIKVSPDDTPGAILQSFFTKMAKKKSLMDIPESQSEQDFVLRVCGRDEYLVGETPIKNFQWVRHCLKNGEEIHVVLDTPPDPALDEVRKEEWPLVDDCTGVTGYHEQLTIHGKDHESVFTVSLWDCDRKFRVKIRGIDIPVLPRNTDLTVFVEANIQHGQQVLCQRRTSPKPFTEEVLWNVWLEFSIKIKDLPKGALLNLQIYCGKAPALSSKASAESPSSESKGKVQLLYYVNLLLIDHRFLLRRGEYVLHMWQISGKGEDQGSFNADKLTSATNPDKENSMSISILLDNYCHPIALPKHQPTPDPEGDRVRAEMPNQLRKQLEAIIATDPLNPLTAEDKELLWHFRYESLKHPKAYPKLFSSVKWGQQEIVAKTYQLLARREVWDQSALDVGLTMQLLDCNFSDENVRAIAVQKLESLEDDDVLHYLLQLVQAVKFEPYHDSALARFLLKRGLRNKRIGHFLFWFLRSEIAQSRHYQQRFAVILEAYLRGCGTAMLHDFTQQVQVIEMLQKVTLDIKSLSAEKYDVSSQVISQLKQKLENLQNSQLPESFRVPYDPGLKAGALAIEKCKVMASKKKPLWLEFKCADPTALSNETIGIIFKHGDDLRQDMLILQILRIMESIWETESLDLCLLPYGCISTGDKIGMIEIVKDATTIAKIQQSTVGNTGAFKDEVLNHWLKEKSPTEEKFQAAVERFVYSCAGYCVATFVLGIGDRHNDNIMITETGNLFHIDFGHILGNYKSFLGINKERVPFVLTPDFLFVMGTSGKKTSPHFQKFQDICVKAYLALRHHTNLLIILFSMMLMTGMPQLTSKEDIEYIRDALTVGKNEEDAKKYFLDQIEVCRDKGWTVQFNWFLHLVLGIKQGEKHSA
The target of another test is Human mTOR (FLAG-TOR) (Homo sapiens, UniProt P42345). As to the kind of experiment: mTOR kinase assay (DELFIA format, purified enzyme). Type of test: biochemical. Particulars: read-out: IC50 mTOR.
Sequence of Human mTOR (FLAG-TOR) (P42345 1360-2549 limits assumed): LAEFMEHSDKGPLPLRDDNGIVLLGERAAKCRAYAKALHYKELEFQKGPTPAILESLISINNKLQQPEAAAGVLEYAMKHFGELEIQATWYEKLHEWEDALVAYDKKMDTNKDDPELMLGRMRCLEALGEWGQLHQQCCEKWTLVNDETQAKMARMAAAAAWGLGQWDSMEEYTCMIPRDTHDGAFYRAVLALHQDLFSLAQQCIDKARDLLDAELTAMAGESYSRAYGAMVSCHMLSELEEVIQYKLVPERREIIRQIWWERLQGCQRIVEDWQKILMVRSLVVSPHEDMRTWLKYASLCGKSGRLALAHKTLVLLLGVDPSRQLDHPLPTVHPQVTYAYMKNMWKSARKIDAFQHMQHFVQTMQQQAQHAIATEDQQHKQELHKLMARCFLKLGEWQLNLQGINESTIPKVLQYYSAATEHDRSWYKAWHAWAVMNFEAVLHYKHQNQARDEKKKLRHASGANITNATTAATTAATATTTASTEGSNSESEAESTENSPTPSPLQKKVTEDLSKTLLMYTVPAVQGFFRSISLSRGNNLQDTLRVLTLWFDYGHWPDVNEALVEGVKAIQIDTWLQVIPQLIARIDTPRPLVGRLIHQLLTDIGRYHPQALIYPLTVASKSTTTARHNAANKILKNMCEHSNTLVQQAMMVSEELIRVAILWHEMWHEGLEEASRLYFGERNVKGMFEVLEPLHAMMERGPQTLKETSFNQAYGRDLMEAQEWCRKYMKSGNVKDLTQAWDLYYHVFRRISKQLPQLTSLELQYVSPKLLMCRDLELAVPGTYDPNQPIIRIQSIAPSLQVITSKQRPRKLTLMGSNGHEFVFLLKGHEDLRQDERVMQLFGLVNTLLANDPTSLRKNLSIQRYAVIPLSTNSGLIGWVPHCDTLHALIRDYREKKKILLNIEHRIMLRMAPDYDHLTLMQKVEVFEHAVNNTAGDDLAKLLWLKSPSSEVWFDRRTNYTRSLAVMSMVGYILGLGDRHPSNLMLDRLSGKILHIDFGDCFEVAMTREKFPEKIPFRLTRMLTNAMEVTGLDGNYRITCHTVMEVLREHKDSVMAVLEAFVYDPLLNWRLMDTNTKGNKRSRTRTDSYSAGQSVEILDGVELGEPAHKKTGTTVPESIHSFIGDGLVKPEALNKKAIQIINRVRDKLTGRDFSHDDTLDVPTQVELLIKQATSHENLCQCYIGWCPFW
The test system of test [1] is human breast MDA-MB-361 tumor cell line. Put plainly: In vitro cell culture growth assay (MTS), MDA-MB-361. The settings on record: Homo sapiens, MTS cell growth assay, three days after drug treatment, read-out: IC50 MDA-MB-361. Type of test: cell-based. For orientation: Tetrazolium assays rely on reduction of a dye to a coloured formazan, in cell work by metabolically active cells.

The test system of test [2] is human prostate PC3-mm2 tumor cell line. As to the kind of experiment: In vitro cell culture growth assay (MTS), PC3-mm2. Type of test: cell-based. Particulars: Homo sapiens, PC3MM2, 72 h, MTS cell growth assay, three days after drug treatment, read-out: IC50 PC3-mm2.
Setting [3] is: MDA-MB-361, 72 h, MDA-MB-361 cells.

Several values for one entry are separate records, joined by “and”; a condition that tells them apart may be missing. Identical values can stand only once. Like-named read-outs stand apart in the source and are kept apart here.

Sequence of PI3K-α (P42336 whole entry, species assumed): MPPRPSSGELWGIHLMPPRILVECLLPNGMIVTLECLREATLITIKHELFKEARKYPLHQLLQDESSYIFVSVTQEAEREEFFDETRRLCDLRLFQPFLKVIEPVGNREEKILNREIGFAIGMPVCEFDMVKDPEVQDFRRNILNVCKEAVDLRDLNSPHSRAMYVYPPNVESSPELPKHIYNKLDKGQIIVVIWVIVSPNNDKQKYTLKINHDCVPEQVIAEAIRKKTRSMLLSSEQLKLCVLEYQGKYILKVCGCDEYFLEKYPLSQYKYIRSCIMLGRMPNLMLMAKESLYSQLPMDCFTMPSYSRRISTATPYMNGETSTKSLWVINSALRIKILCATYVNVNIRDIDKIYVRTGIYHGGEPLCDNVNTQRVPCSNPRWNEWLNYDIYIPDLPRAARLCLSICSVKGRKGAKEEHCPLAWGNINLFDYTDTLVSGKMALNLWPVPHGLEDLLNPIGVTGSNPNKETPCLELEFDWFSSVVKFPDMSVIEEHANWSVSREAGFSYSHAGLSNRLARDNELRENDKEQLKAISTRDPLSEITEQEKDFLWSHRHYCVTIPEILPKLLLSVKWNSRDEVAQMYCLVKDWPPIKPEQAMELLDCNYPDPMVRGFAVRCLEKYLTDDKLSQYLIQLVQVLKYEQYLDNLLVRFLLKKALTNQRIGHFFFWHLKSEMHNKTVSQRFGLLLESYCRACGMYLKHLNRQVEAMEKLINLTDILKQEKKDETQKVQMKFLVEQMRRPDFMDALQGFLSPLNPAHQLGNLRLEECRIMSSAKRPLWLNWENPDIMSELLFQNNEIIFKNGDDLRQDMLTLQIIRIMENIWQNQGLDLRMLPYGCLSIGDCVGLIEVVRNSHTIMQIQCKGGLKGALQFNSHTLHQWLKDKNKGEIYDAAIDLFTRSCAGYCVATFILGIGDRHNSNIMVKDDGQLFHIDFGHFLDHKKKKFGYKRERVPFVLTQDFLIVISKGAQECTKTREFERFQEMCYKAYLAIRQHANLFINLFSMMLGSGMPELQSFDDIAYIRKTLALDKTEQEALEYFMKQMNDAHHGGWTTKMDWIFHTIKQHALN
Sequence of PI3K-α (P27986 whole entry partner, species assumed): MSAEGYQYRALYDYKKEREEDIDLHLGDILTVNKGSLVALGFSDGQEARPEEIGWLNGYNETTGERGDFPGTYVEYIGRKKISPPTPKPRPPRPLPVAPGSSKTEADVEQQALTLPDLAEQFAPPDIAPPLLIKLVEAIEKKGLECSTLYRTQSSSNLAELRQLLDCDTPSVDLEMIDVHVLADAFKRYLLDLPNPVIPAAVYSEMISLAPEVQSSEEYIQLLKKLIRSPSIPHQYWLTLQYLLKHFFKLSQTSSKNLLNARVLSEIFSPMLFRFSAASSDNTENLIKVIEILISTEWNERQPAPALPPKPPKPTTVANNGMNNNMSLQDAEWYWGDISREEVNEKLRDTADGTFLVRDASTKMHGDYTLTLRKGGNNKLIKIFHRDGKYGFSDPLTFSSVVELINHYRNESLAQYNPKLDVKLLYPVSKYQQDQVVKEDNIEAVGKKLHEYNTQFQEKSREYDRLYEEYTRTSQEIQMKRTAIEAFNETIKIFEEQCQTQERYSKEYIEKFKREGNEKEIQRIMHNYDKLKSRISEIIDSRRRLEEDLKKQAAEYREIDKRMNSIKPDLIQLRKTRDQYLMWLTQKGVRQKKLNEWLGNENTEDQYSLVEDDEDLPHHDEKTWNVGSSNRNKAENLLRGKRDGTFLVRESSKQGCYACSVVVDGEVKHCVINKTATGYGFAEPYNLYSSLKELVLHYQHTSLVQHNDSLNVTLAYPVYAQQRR

Consider `CN(C)C1CCN(c2ccc(NC(=O)Nc3ccc(-c4nc(-c5ccccc5)nc(N5CCOCC5)n4)cc3)cc2)CC1` [Example 345, 1-{4-[4-(dimethylamino)piperidin-1-yl]phenyl}-3-[4-(4-morpholin-4-yl-6-phenyl-1,3,5-triazin-2-yl)phenyl]urea], for which the IC50 (commonly the concentration that gives 50% inhibition) was 43 nM at PI3K-α; 43.5 nM at PI3K-α (listed as 535); 112 nM on PI3K-γ; 80 nM and 81.5 nM on Human mTOR (FLAG-TOR); 554 nM in test [1] (MDA-MB-361, 72 h); 395 nM in test [2] (PC3-mm2 cells). In addition, in test [2], the IC50 came out at 395 nM.

With `O=C(Nc1ccc(-c2nc(N3CCOCC3)nc(N3C4CCC3COC4)n2)cc1)Nc1ccc(Cl)nc1` [Example 349, 1-(6-chloropyridin-3-yl)-3-{4-[4-morpholin-4-yl-6-(3-oxa-8-azabicyclo[3.2.1]oct-8-yl)-1,3,5-triazin-2-yl]phenyl}urea], the half-inhibitory concentration (IC50) at PI3K-α stood at 59 nM; at PI3K-γ, 163 nM; on PI3K-γ (listed as 749), 164 nM; on Human mTOR (FLAG-TOR), 2 nM; in test [1] (MDA-MB-361, 72 h), 87 nM; in test [2] (PC3-mm2 cells) it was 81 nM. Further, in test [2], the half-maximal inhibitory concentration (IC50) worked out at 81 nM.

For the compound `CN(C)C1CCN(C(=O)c2ccc(NC(=O)Nc3ccc(-c4nc(C5CCOCC5)nc(N5CCOCC5)n4)cc3)cc2)CC1` [Example 350, 1-(4-{[4-(dimethylamino)piperidin-1-yl]carbonyl}phenyl)-3-{4-[4-morpholin-4-yl-6-(tetrahydro-2H-pyran-4-yl)-1,3,5-triazin-2-yl]phenyl}urea], the IC50 at PI3K-α came to 1 nM; at PI3K-α (listed as 478) it was 1.1 nM; at PI3K-γ it was 7 nM; on PI3K-γ (listed as 478), 6 nM; at PI3K-γ (listed as 510), 6.3 nM; on Human mTOR (FLAG-TOR), 0.89 nM. The IC50 in test [1] (setting [3]) was < 3.08 nM; in test [2] (PC3-mm2 cells), 8.5 nM; in test [2] it was 8.5 nM.

As to `Nc1ccc(NC(=O)Nc2ccc(-c3nc(N4CCOCC4)nc(N4CCOCC4)n3)cc2)cc1` [Example 351, 1-(4-aminophenyl)-3-[4-(4,6-dimorpholin-4-yl-1,3,5-triazin-2-yl)phenyl]urea], the IC50 at PI3K-α was 3 nM; at PI3K-γ, 16 nM; at PI3K-γ (listed as 497) it was 19 nM; at Human mTOR (FLAG-TOR), 4.2 nM and 4.6 nM; in test [1] (setting [3]) it was 50 nM; in test [1] (MDA-MB-361, 72 h), 50 nM. Moreover, the IC50 in test [2] (PC3-mm2 cells) and in test [2] was 66 nM in each case.

In the case of `CC(C)c1nc(-c2ccc(NC(=O)Nc3ccc(-c4cncnc4)cc3)cc2)nc(N2CCOCC2)n1` [Example 487, 1-{4-[4-(1-methylethyl)-6-morpholin-4-yl-1,3,5-triazin-2-yl]phenyl}-3-(4-pyrimidin-5-ylphenyl)urea], the IC50 amounted to 32.3 nM at PI3K-α; 27 nM at PI3K-γ; 1.8 nM on Human mTOR (FLAG-TOR); 175 nM in test [1] (72 h, MDA-MB-361 cells); 339 nM in test [2] (PC3-mm2 cells).

On to `CC(C)c1nc(-c2ccc(NC(=O)Nc3ccc(C(=O)N4CCN(C(C)C)CC4)cc3)cc2)nc(N2CCOCC2)n1` [Example 491, 1-{4-[4-(1-methylethyl)-6-morpholin-4-yl-1,3,5-triazin-2-yl]phenyl}-3-(4-{[4-(1-methylethyl)piperazin-1-yl]carbonyl}phenyl)urea], for which the IC50 stood at 3.5 nM at PI3K-α; 17 nM at PI3K-γ; 1.1 nM at Human mTOR (FLAG-TOR); 8 nM in test [1] (setting [3]); 35 nM in test [2] (PC3-mm2 cells).

Take `CC(C)(C)OC(=O)N1CC(Oc2nc(-c3ccc(NC(=O)Nc4ccncc4)cc3)nc(N3CCOCC3)n2)C1` [Example 494, tert-butyl 3-[(4-morpholin-4-yl-6-{4-[(pyridin-4-ylcarbamoyl)amino]phenyl}-1,3,5-triazin-2-yl)oxy]azetidine-1-carboxylate]: the IC50 is 16.5 nM on PI3K-α; 104 nM on PI3K-γ; 4.2 nM at Human mTOR (FLAG-TOR); 115 nM in test [1] (72 h, MDA-MB-361 cells); 276 nM in test [2] (PC3-mm2 cells).

Regarding `CN1CCN(C(=O)Nc2ccc(NC(=O)Nc3ccc(-c4nc(N5CCOCC5)nc(N5CCOCC5)n4)cc3)cc2)CC1` [Example 498, N-[4-({[4-(4,6-dimorpholin-4-yl-1,3,5-triazin-2-yl)phenyl]carbamoyl}amino)phenyl]-4-methylpiperazine-1-carboxamide], the IC50 was < 1.7 nM at PI3K-α; 2.5 nM on PI3K-γ; 2.35 nM at Human mTOR (FLAG-TOR); 4 nM in test [1] (setting [3]); 16.5 nM in test [2] (PC3-mm2 cells).

`CN(C)C1CCN(C(=O)Nc2ccc(NC(=O)Nc3ccc(-c4nc(N5CCOCC5)nc(N5CCOCC5)n4)cc3)cc2)CC1` [Example 499, 4-(dimethylamino)-N-[4-({[4-(4,6-dimorpholin-4-yl-1,3,5-triazin-2-yl)phenyl]carbamoyl}amino)phenyl]piperidine-1-carboxamide]: the IC50 is < 1.9 nM on PI3K-α; 4.5 nM at PI3K-γ; 2.2 nM at Human mTOR (FLAG-TOR); 21 nM in test [1] (setting [3]); 31 nM in test [2] (PC3-mm2 cells).

Turning to `O=C(NCCN1CCCCC1)Nc1ccc(NC(=O)Nc2ccc(-c3nc(N4CCOCC4)nc(N4CCOCC4)n3)cc2)cc1` [Example 501, 1-[4-(4,6-dimorpholin-4-yl-1,3,5-triazin-2-yl)phenyl]-3-(4-{[(2-piperidin-1-ylethyl)carbamoyl]amino}phenyl)urea], the IC50 at PI3K-α was < 1.75 nM; on PI3K-γ, 6.5 nM; on Human mTOR (FLAG-TOR), 0.69 nM; in test [1] (72 h, MDA-MB-361 cells), < 31 nM; in test [2] (PC3-mm2 cells), 41 nM.

As for `CN1CCCN(C(=O)Nc2ccc(NC(=O)Nc3ccc(-c4nc(N5CCOCC5)nc(N5CCOCC5)n4)cc3)cc2)CC1` [Example 502, N-[4-({[4-(4,6-dimorpholin-4-yl-1,3,5-triazin-2-yl)phenyl]carbamoyl}amino)phenyl]-4-methyl-1,4-diazepane-1-carboxamide], the IC50 at PI3K-α is 0.5 nM; at PI3K-γ, 6 nM; on Human mTOR (FLAG-TOR) it was 1 nM; in test [1] (72 h, MDA-MB-361 cells), 4 nM; in test [2] (PC3-mm2 cells), 11 nM.

As for `CN(C)C(=O)Nc1ccc(NC(=O)Nc2ccc(-c3nc(N4CCOCC4)nc(N4CCOCC4)n3)cc2)cc1` [Example 504, 1-{4-[(dimethylcarbamoyl)amino]phenyl}-3-[4-(4,6-dimorpholin-4-yl-1,3,5-triazin-2-yl)phenyl]urea], the IC50 at PI3K-α amounted to 1.8 nM; at PI3K-γ, 10 nM; at Human mTOR (FLAG-TOR) it was 1.35 nM; in test [1] (setting [3]), 22.5 nM; in test [2] (PC3-mm2 cells), 25.5 nM.

Turning to `CN1CCN(C(=O)c2ccc(NC(=O)Nc3ccc(-c4nc(C5CCOCC5)nc(N5CCOCC5)n4)cc3)cc2)CC1` [Example 511, 1-{4-[(4-methylpiperazin-1-yl)carbonyl]phenyl}-3-{4-[4-morpholin-4-yl-6-(tetrahydro-2H-pyran-4-yl)-1,3,5-triazin-2-yl]phenyl}urea], the IC50 on PI3K-α was 2.3 nM; at PI3K-γ it was 10.3 nM; at Human mTOR (FLAG-TOR) it was 0.52 nM; in test [1] (setting [3]), 2 nM; in test [2] (PC3-mm2 cells) it was 10 nM.

With `CN(C)CCNC(=O)c1ccc(NC(=O)Nc2ccc(-c3nc(C4CCOCC4)nc(N4CCOCC4)n3)cc2)cc1` [Example 512, N-[2-(dimethylamino)ethyl]-4-[({4-[4-morpholin-4-yl-6-(tetrahydro-2H-pyran-4-yl)-1,3,5-triazin-2-yl]phenyl}carbamoyl)amino]benzamide], the IC50 at PI3K-α was < 1.9 nM; at PI3K-γ, 10 nM; on Human mTOR (FLAG-TOR), 0.12 nM; in test [1] (72 h, MDA-MB-361 cells), 1 nM; in test [2] (PC3-mm2 cells), 8 nM.

Take `O=C(Nc1ccc(C(=O)NCCN2CCCC2)cc1)Nc1ccc(-c2nc(C3CCOCC3)nc(N3CCOCC3)n2)cc1` [Example 513, 4-[({4-[4-morpholin-4-yl-6-(tetrahydro-2H-pyran-4-yl)-1,3,5-triazin-2-yl]phenyl}carbamoyl)amino]-N-(2-pyrrolidin-1-ylethyl)benzamide]: the IC50 is < 2.4 nM at PI3K-α; 12 nM on PI3K-γ; 0.12 nM on Human mTOR (FLAG-TOR); 2 nM in test [1] (72 h, MDA-MB-361 cells); 13 nM in test [2] (PC3-mm2 cells).

Take `O=C(Nc1ccc(C(=O)NCCN2CCCCC2)cc1)Nc1ccc(-c2nc(C3CCOCC3)nc(N3CCOCC3)n2)cc1` [Example 514, 4-[({4-[4-morpholin-4-yl-6-(tetrahydro-2H-pyran-4-yl)-1,3,5-triazin-2-yl]phenyl}carbamoyl)amino]-N-(2-piperidin-1-ylethyl)benzamide]: the 50% inhibitory concentration (IC50) at PI3K-α is 1.6 nM; at PI3K-γ it was 15 nM; at Human mTOR (FLAG-TOR), 0.17 nM; in test [1] (72 h, MDA-MB-361 cells), < 3.2 nM; in test [2] (PC3-mm2 cells), 12 nM.

For `CC(C)N1CCN(C(=O)c2ccc(NC(=O)Nc3ccc(-c4nc(N5CCOCC5)nc(N5CCOCC5)n4)cc3)cc2)CC1` [Example 515, 1-[4-(4,6-dimorpholin-4-yl-1,3,5-triazin-2-yl)phenyl]-3-(4-{[4-(1-methylethyl)piperazin-1-yl]carbonyl}phenyl)urea], the IC50 at PI3K-α turned out to be 0.4 nM; on PI3K-γ, 7.6 nM; on Human mTOR (FLAG-TOR), 1.55 nM; in test [1] (setting [3]) it was 3 nM; in test [2] (PC3-mm2 cells), 12 nM.
